Test results: patent publication US8476036B2, “Nonluminogenic assay for living cells” (Promega Corporation, priority 2004, dated 2013)
Where a name gives a salt, the structure may show the parent alone. Read-outs that look alike come from different tables or passages of the source. Square brackets hold non-standard residues; d marks the D form. Peptide text beside a SMILES is read from it. * marks the point of attachment. Sta = CC(C)C[C@H](N)[C@@H](O)CC(=O)O; Isovaleryl = CC(C)CC(=O)*

Assays:
HL-60 and/or U937 = assay: Protease retention assay inhibitor/adjuncts survey with Gly-Phe-AFC; format: cell-based; settings: for Comments: no inhibition/no effect to (concentration): highest concentration without effect on retention activity
From the text: (§1) Puromycin, E-64, Phenylmethanesulfonyl fluoride (PMSF), Adenosine 5′-triphosphate (ATP), N-(α-Rhamnopyranosyloxyhyrdoxyphosphinyl)-Leu-Trp disodium salt (Phosphoramidon), N-[(2S,3R)-3-Amino-2-hydroxy-4-phenylbutyryl-L-leucine hydrochloride (Bestatin), 1,10-Phenathroline, […], 4-(2-Aminoethyl)benzenesulfonyl fluoride (AEBSF), 1,4-Dithio-DL-threitol (DTT), Edetate disodium dihyrdrate (EDTA), Isovaleryl-L-valyl-L-valyl-[(3S,4S)-4-amino-3-hydroxy-6-methylheptanoyl]-L-alanyl[93S,4S]-4-amino-3-hydroxy-6-methylheptanoicacid (Pepstatin A), sodium chloride, Aprotinin, N-Acetyl-L-leucyl-L-leucyl-L-argininal hemisulfate salt (leupeptin) were all purchased from Sigma. Inhibitors were resuspended in DMSO to varying stock concentrations with a high target concentration of 200 μM or 200 μg/ml in Dulbecco's Phosphate Buffer Saline w/o Mg^++ or Ca^++ (DPBS) for addition to either lysates or viable cell populations. DTT, NaCl, EDTA, and ATP were also diluted in DPBS. All compounds were incubated with compromised or viable cells for a period of at least 30 minutes (most 60 minutes) at 37° C. prior to assessment of activity.
(§2) The protease retention assay inhibitor/adjuncts survey was conducted on sonicated, saponin-lysed, or viable HL-60 and/or U937 using Gly-Phe-AFC at 100 μM final concentration as described previously. The protease release assay inhibitor/adjuncts survey was conducted on sonicated, saponin-lysed, or viable HL-60, SK-MEL-28, and/or U937 using Ala-Ala-Phe-AMC or (Ala-Ala-Phe)2-Rhodamine 110.

HL-60, SK-MEL-28, U937 = assay: Protease release assay inhibitor/adjuncts survey with Ala-Ala-Phe-AMC; format: cell-based; settings: for Comments: extent of the effect on release activity, in words
From the text: as §1, §2

[1] = extent or nature of the effect on retention activity, in words
[2] = on protease retention activity, Gly-Phe-AFC at 100 μM final, sonicated, saponin-lysed, or viable cells
[3] = on protease release activity, Ala-Ala-Phe-AMC, sonicated, saponin-lysed, or viable cells
[4] = highest concentration without inhibition of release activity

Molecule	Effect (HL-60 and/or U937; [2])	Effect (HL-60, SK-MEL-28, U937; [3])	Comments: no inhibition to (concentration) (HL-60, SK-MEL-28, U937; [4])	other results
O[C@@H](CS)[C@@H](O)CS (racemic) [DTT, 1,4-Dithio-DL-threitol]	Augments	Augments	–	Protease retention activity profile in the presence of inhibitors or adjuncts (HL-60 and/or U937): independent; Comments (HL-60 and/or U937; [1]): Very slightly; Comments (HL-60, SK-MEL-28, U937): Modest
c1cnc2c(c1)ccc1cccnc12 [1,10 Phenanthroline, 1,10-Phenathroline]	No inhib	No inhib	to 100 uM	Comments: no inhibition/no effect to (concentration) (HL-60 and/or U937): to 100 uM
O=c1oc(Cl)c(Cl)c2ccccc12 [3,4 Diisocoumarin, 3,4-diisocoumarin]	Inhibition(?)	Inhibition	–	Comments (HL-60 and/or U937; [1]): Kills cells; Comments (HL-60, SK-MEL-28, U937): Strong
NCCc1ccc(S(=O)(=O)F)cc1 [AEBSF, 4-(2-Aminoethyl)benzenesulfonyl fluoride]	–	Inhibition	–	Comments (HL-60, SK-MEL-28, U937): Strong
Nc1ncnc2c1ncn2[C@@H]1O[C@H](COP(=O)(O)OP(=O)(O)OP(=O)(O)O)[C@@H](O)[C@H]1O [ATP, Adenosine 5′-triphosphate]	No effect	–	–	Protease retention activity profile in the presence of inhibitors or adjuncts (HL-60 and/or U937): independent; Comments: no inhibition/no effect to (concentration) (HL-60 and/or U937): to 100 uM
CC(C)C[C@H](NC(=O)[C@@H](O)[C@H](N)Cc1ccccc1)C(=O)O [Bestatin, N-[(2S,3R)-3-Amino-2-hydroxy-4-phenylbutyryl-L-leucine hydrochloride]	Inhibition	No inhib	to 10 uM	Protease retention activity profile in the presence of inhibitors or adjuncts (HL-60 and/or U937): sensitivities; Comments (HL-60 and/or U937; [1]): Strong
CC(C)C[C@H](NC(=O)[C@H]1O[C@@H]1C(=O)O)C(=O)NCCCCN=C(N)N [E-64]	No inhib	No inhib	to 100 uM	Comments: no inhibition/no effect to (concentration) (HL-60 and/or U937): to 100 uM
O.O.O=C([O-])CN(CCN(CC(=O)[O-])CC(=O)O)CC(=O)O.[Na+].[Na+] [EDTA, Edetate disodium dihyrdrate]	–	–	–	Comments (HL-60 and/or U937): Also reduces; Effect (HL-60 and/or U937): Inhibition; Protease retention activity profile in the presence of inhibitors or adjuncts (HL-60 and/or U937): sensitivities; Comments: no inhibition to (concentration) (HL-60, SK-MEL-28, U937): to 50 mM; Effect (HL-60, SK-MEL-28, U937): No inhib
NC(N)=NCCC[C@H](NC(=O)[C@@H]1CCCN1C(=O)[C@H](N)Cc1ccccc1)C(=O)CCl [FPR-CMK]	–	Inhibition	–	Comments (HL-60, SK-MEL-28, U937): Moderate
CC(=O)N[C@@H](CC(C)C)C(=O)N[C@@H](CC(C)C)C(=O)N[C@H](C=O)CCCNC(=N)N [Leupeptin, N-Acetyl-L-leucyl-L-leucyl-L-argininal hemisulfate salt]	–	No inhib	to 100 ug/ml	–
[Cl-].[Na+] [NaCl, sodium chloride]	No inhib	–	–	Comments (HL-60 and/or U937; [1]): Insensitivity
O=S(=O)(F)Cc1ccccc1 [PMSF, Phenylmethanesulfonyl fluoride]	No inhib	Inhibition	–	Comments: no inhibition/no effect to (concentration) (HL-60 and/or U937): to 100 uM; Comments (HL-60, SK-MEL-28, U937): Strong
CC(C)CC(=O)N[C@H](C(=O)N[C@H](C(=O)N[C@@H](CC(C)C)[C@@H](O)CC(=O)N[C@@H](C)C(=O)N[C@@H](CC(C)C)[C@@H](O)CC(=O)O)C(C)C)C(C)C [Pepstatin, Isovaleryl-L-valyl-L-valyl-[(3S,4S)-4-amino-3-hydroxy-6-methylheptanoyl]-L-alanyl[93S,4S]-4-amino-3-hydroxy-6-methylheptanoicacid] (Isovaleryl-VV[Sta]A[Sta]-OH)	–	No inhib	to 100 uM	–
CC(C)C[C@H](NP(=O)(O)O[C@@H]1O[C@@H](C)[C@H](O)[C@@H](O)[C@H]1O)C(=O)N[C@@H](Cc1c[nH]c2ccccc12)C(=O)O [Phosphoramidon, N-(α-Rhamnopyranosyloxyhyrdoxyphosphinyl)-Leu-Trp disodium salt]	No inhib	No inhib	to 100 uM	Comments: no inhibition/no effect to (concentration) (HL-60 and/or U937): to 100 uM
COc1ccc(C[C@H](N)C(=O)N[C@H]2[C@@H](O)[C@H](n3cnc4c(N(C)C)ncnc43)O[C@@H]2CO)cc1 [Puromycin]	Inhibition	–	–	Protease retention activity profile in the presence of inhibitors or adjuncts (HL-60 and/or U937): sensitivities; Comments (HL-60 and/or U937; [1]): Very modest
Antitrypsin: Serine (trypsin-like) protease inhibitor in Table 6	–	No inhib	to 100 ug/ml	–
Aprotinin	–	No inhib	to 100 uM	–
